Measurements as given in patent publication US20080299239A1, “Inhibitor of Glucose Absorption and Method for Producing the Same” (NICHIREI FOODS INC., priority 2003, published 2008).

System: Caco-2 cells
Test: Test of glucose uptake by cultured Caco-2 cells derived from human intestinal tract
Assay type: cell-based
Settings: 250 μg/ml, 15 min preincubation, 10 min incubation, differentiated Caco-2 cells; for glucose transportation (3H-labeled glucose uptake): FIG. 1, relative to control; for 3-O-methyl glucose transportation (3H-labeled uptake): FIG. 2, relative to control
Protocol: Cultured Caco-2 cells derived from human intestinal tracts were monolayer-cultured on a plate for about 10 days and then differentiated. A DMEM medium containing 10% fetal calf serum was used. Pigment 1 and pigment 2 (250 μg/ml each) were added to the differentiated Caco-2 cells, the resultants were preincubated for 15 minutes, and ^3H-labeled glucose or 3-O-methyl glucose was then added thereto, followed by incubation for 10 minutes. ^3H incorporated into the cells was analyzed to determine the amount of glucose or methyl glucose transported.

| SMILES | glucose transportation (3H-labeled glucose uptake) | 3-O-methyl glucose transportation (3H-labeled uptake) |
| --- | --- | --- |
| C[C@@H]1O[C@@H](Oc2cc3c(O)cc(O)cc3[o+]c2-c2ccc(O)c(O)c2)[C@H](O)[C@H](O)[C@H]1O.[Cl-] [pigment 1, cyanidin-3-rhamnoside] | specifically inhibited | specifically inhibited |
| CC1O[C@@H](Oc2cc3c(O)cc(O)cc3[o+]c2-c2ccc(O)cc2)[C@@H](O)C(O)[C@H]1O (stereo partly shown) [pigment 2, pelargonidin-3-rhamnoside] | specifically inhibited | specifically inhibited |
